In publication PMC8464850, “Sulfonium Ligands of the α7 nAChR” (Molecules, 2021):
Counter-ions that a name gives are not always drawn.

What was measured:
[1] = system: α4β2 subtypes formed with concatamers; test: Inhibition of ACh control peak-current responses of α4-containing nAChR formed with concatamers; type: cell-based, human; conditions: 100 µM compound, Figure 7B
Description: (§1) Although none of the other sulfonium compounds activated neuronal heteromeric receptors, several of them produced inhibition of ACh-evoked responses. Shown in Figure 7A are concentration-response studies for the compounds that were active antagonists of α3β4 nAChR (Table 3). Some compounds were also tested as antagonists of α4β2 subtypes formed with concatamers (Figure 7B).
Figure 7 Inhibition of heteromeric nAChR by sulfonium compounds. (A) Inhibition of α3β4 100 µM ACh-evoked peak currents by the co-application of the sulfonium compounds. Data are the averaged of six to eight oocytes (±SEM). […]
(§2) Solutions were applied from 96-well plates via disposable tips. […] The responses were calculated as both peak current amplitudes and net charge, as previously described. Data were collected at 50 Hz, filtered at 20 Hz for α7 receptors or filtered at 5 Hz for heteromeric nAChR, and analyzed by Clampfit (Molecular Devices, San Jose, CA, USA) and Excel (Microsoft, Redmond, WA, USA). Data were expressed as means ± SEM from at least four oocytes for each experiment and plotted with Kaleidagraph 4.5.2 (Abelbeck Software, Reading, PA, USA). Multi-cell averages were calculated for comparisons of complex responses. Averages of the normalized data were calculated for each of the 10,322 points in each of the 206.44 s traces (acquired at 50 Hz), as well as the standard errors for those averages.

α4β2α5 = molecular target: T1, α4β2α5 (Homo sapiens, UniProt P17787+P43681); test: Activation of heteromeric nAChR by S1: α4(2)β2(2)α5; type: cell-based
T1 construct: expressed in transfected cells; host or cells: Xenopus laevis oocytes (injected RNA)
Text: (§3) Concatamers were used in order to obtain heteromeric receptors with known subunit composition. The β2-6-α4 concatamer was co-expressed with monomeric α4, β2, or α5 to obtain receptors with the composition α4(3)β2(2), α4(2)β2(3), or α4(2)β2(2)α5, respectively. A concatamer of five linked subunits was used to obtain the β3α4 β2α6β2 receptors. The α3β4 receptors were formed from the co-expression of α3 and β4 subunit monomers at equal ratios. Note that the data were initially measured relative to internal ACh control responses for each oocyte (Methods). Responses were subsequently adjusted for the relative values of the ACh controls and the ACh maximum responses for each of the various subtypes, determined in previous experiments.
(§4) Figure 6 Activation of heteromeric neuronal nAChR by S1. […] Data are the average peak currents (n = 6–8 oocytes ± SEM), measured relative to initial ACh control responses for each oocyte (concentrations listed in Methods). Responses were subsequently adjusted for the relative values of the ACh controls and the ACh maximum responses for each of the various subtypes, determined in previous experiments. […]
(§5) Solutions were applied from 96-well plates via disposable tips. […] The responses were calculated as both peak current amplitudes and net charge, as previously described. […] Multi-cell averages were calculated for comparisons of complex responses. […]

α3β4 = molecular target: T2, α3β4 (Homo sapiens, UniProt P30926+P32297); test: Activation of heteromeric nAChR by S1: α3β4; type: cell-based
T2 construct: expressed in transfected cells; host or cells: Xenopus laevis oocytes (injected RNA)
Text: as §3, §4, §5

[2] = molecular target: T3, muscle-type (α1β1εδ) receptors (Mus musculus, UniProt P02716+P04756+P20782); test: Activation of muscle-type receptors; type: cell-based; conditions: not shown
T3 construct: expressed in transfected cells; host or cells: Xenopus laevis oocytes (injected RNA)
Text: The human nAChR clones were obtained from Jon Lindstrom (University of Pennsylvania, Philadelphia, PA, USA). Mouse muscle subunit clones were obtained from Jim Boulter (Salk Institute, La Jolla, CA, USA) and Paul Gardner (Dartmouth, Hanover, NH, USA). The human resistance-to-cholinesterase 3 (RIC3) clone was obtained from Millet Treinin (Hebrew University, Jerusalem, Israel) and co-injected with α7 to improve the level and speed of α7 receptor expression without affecting the pharmacological properties of the receptors. Subsequent to linearization and purification of the plasmid DNAs, RNAs were prepared using the mMessage mMachine in vitro RNA transcription kit (Ambion, Austin, TX, USA).
Experiments were conducted using OpusXpress 6000A (Molecular Devices, Union City, CA, USA). […]
as §2, with “Averages of the normalized data were calculated for each of the 10,322 points in each of the 206.44 s traces (acquired at 50 Hz), as well as the standard errors for those averages.” left out

[3] = system: neuronal heteromeric receptors; test: Activation of neuronal heteromeric nAChR (panel); type: cell-based, human; conditions: all heteromeric subtypes tested
Text: as §3, with “experiments. […]” for “experiments.”
as §2, with “Averages of the normalized data were calculated for each of the 10,322 points in each of the 206.44 s traces (acquired at 50 Hz), as well as the standard errors for those averages.” left out

α3β4 nAChR = molecular target: T4, α3β4 nAChR (Homo sapiens, UniProt P30926+P32297); test: Inhibition of α3β4 100 µM ACh-evoked peak currents; type: cell-based; conditions: co-application with 100 µM ACh, peak currents
T4 construct: expressed in transfected cells; host or cells: Xenopus laevis oocytes (injected RNA)
Description: as §1
Figure 7 Inhibition of heteromeric nAChR by sulfonium compounds. (A) Inhibition of α3β4 100 µM ACh-evoked peak currents by the co-application of the sulfonium compounds. Data are the averaged of six to eight oocytes (±SEM). To confirm the stability of the ACh responses, applications of ACh plus the sulfonium compounds were alternated with applications of ACh alone. (B) Inhibition of ACh control peak-current responses of α4-containing nAChR formed with concatamers by 100 µM of the sulfonium compounds indicated. Data are the average of six to eight oocytes (±SEM).
Experiments were conducted using OpusXpress 6000A (Molecular Devices, Union City, CA, USA). Both the voltage and current electrodes were filled with 3 M KCl. Oocytes were voltage-clamped at −60 mV at room temperature (24 °C). The oocytes were bath-perfused with Ringer’s solution (115 mM NaCl, 2.5 mM KCl, 1.8 mM CaCl2, 10 mM HEPES, and 1 μM atropine, pH 7.2) at 2 mL/min for α7 receptors, or 4 mL/min for heteromeric nAChR. To evaluate the effects of experimental compounds, responses were compared to control ACh-evoked responses, defined as the average of two initial applications of ACh made before test applications. ACh control concentrations were 60 µM for α7 receptors; 100 µM for α4(3)β2(2) and α3β4 receptors; 30 µM for α4β2α6β2β3 and muscle-type (αβ1εδ) receptors; and 10 µM for α4(3)β2(2) and α4(2)β2(2)α5 receptors.
Solutions were applied from 96-well plates via disposable tips. Drug applications were 12 s in duration, followed by 181 s washout periods for α7 receptors, or 6 s in duration followed by 301 s washout periods for heteromeric nAChR. The responses were calculated as both peak current amplitudes and net charge, as previously described. Data were collected at 50 Hz, filtered at 20 Hz for α7 receptors or filtered at 5 Hz for heteromeric nAChR, and analyzed by Clampfit (Molecular Devices, San Jose, CA, USA) and Excel (Microsoft, Redmond, WA, USA). Data were expressed as means ± SEM from at least four oocytes for each experiment and plotted with Kaleidagraph 4.5.2 (Abelbeck Software, Reading, PA, USA). Multi-cell averages were calculated for comparisons of complex responses. Averages of the normalized data were calculated for each of the 10,322 points in each of the 206.44 s traces (acquired at 50 Hz), as well as the standard errors for those averages.

[4] = peak currents relative to ACh maximum

T1 sequence (P17787 26-502): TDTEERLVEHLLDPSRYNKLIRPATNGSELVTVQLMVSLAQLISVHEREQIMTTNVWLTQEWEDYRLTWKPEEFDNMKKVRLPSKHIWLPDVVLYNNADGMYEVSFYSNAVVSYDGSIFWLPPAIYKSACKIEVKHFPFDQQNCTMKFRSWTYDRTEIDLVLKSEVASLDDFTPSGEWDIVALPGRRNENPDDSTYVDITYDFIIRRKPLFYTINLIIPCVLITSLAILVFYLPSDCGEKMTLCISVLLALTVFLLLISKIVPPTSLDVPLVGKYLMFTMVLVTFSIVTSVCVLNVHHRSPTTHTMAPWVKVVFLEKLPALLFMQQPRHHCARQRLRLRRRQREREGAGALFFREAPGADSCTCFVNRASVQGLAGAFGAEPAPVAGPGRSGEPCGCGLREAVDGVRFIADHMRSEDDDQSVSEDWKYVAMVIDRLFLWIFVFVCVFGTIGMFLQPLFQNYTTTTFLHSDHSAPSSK
T1 sequence (P43681 29-627 limits assumed): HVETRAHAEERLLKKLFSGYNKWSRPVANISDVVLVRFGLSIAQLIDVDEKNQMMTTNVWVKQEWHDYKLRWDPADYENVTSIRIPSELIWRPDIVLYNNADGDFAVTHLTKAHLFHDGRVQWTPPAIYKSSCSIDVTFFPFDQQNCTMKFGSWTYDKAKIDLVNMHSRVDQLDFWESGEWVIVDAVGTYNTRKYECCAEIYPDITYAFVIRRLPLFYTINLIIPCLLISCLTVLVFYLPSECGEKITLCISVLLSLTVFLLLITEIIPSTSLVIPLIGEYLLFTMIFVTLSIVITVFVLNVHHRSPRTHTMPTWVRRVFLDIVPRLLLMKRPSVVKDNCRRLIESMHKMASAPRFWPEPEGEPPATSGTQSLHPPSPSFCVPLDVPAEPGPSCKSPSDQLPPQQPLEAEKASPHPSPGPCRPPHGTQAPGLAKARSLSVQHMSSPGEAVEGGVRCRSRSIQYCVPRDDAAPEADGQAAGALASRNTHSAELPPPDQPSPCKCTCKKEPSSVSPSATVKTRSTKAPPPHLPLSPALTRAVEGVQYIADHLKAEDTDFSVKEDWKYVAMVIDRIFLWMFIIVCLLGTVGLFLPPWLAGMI
T2 sequence (P32297 32-505): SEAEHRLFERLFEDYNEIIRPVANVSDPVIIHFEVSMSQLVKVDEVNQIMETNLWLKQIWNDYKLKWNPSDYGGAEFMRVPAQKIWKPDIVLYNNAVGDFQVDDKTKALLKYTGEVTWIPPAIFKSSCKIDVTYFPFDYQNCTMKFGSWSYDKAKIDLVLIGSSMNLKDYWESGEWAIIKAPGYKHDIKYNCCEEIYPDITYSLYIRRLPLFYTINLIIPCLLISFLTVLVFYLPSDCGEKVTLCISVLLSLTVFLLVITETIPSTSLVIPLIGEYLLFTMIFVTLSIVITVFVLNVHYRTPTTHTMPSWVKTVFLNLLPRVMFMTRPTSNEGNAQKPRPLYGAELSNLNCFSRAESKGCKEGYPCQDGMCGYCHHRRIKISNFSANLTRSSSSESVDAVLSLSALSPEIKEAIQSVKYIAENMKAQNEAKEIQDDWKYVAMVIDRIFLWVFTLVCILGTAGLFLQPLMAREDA
T2 sequence (P30926 22-498): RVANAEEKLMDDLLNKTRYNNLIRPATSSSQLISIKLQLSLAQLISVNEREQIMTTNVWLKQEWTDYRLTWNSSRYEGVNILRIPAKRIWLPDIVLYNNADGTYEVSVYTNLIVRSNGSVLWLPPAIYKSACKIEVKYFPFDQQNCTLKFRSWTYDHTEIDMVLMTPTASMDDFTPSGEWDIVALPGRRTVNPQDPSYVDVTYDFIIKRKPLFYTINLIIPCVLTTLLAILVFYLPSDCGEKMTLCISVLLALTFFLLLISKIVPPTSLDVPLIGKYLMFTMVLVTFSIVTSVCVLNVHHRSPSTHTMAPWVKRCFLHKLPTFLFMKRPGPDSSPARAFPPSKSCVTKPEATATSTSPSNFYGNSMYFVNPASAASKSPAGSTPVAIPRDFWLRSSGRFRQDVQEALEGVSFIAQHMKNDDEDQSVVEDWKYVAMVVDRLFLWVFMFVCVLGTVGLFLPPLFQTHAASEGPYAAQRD
T3 sequence (P04756 21-457): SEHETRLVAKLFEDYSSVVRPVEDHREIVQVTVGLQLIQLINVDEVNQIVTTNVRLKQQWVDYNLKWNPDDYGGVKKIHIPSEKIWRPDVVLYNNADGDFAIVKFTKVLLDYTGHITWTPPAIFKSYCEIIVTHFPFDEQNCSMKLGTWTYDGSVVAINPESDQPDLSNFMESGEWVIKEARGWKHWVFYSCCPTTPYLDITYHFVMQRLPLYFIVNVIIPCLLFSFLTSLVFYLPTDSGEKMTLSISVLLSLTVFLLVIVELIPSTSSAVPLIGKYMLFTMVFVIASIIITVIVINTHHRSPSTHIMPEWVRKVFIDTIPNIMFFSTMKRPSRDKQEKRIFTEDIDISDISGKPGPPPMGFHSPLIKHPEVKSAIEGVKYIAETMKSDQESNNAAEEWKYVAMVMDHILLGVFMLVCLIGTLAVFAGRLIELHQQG
T3 sequence (P09690 24-501 partner): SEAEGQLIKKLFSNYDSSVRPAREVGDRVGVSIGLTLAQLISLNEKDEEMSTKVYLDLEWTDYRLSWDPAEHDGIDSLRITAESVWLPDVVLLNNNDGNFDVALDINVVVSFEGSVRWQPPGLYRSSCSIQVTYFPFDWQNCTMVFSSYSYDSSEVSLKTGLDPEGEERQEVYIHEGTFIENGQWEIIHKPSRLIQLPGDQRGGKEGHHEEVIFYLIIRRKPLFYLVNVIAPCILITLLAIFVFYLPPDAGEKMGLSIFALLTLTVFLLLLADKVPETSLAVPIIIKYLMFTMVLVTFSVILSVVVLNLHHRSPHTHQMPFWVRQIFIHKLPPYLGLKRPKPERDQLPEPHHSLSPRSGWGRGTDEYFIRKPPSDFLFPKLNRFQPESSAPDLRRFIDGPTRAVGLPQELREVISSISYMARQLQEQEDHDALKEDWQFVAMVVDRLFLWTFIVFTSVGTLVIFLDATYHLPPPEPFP
T3 sequence (P20782 21-493): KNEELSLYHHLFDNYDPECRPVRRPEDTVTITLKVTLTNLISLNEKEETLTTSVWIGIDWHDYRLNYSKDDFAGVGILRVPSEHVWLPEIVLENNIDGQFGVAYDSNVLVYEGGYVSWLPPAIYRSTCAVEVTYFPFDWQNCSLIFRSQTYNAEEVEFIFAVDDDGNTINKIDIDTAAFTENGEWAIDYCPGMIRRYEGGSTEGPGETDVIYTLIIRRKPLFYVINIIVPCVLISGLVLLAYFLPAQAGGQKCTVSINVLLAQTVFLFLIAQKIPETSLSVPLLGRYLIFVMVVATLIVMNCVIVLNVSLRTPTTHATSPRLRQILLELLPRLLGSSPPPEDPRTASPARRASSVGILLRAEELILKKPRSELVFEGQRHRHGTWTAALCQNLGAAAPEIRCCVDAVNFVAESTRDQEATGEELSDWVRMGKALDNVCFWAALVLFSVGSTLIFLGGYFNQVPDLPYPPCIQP
T3 sequence (P02716 25-520): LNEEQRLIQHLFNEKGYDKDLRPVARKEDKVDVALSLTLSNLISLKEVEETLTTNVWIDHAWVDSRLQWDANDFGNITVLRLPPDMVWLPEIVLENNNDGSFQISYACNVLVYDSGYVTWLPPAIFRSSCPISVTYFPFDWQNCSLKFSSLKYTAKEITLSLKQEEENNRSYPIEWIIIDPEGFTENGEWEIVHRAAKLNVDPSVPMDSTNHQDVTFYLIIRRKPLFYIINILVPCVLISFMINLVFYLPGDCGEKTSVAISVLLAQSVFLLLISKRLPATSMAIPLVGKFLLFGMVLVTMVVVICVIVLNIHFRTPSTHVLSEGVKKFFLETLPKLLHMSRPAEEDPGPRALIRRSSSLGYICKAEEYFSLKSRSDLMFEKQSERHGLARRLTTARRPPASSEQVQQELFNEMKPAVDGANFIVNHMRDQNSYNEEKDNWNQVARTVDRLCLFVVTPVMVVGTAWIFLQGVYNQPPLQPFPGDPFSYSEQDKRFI
T4 sequence (P32297 32-505): as the sequence (P32297 32-505) above
T4 sequence (P30926 22-498): as the sequence (P30926 22-498) above

C[S+](C)c1cc([N+](=O)[O-])ccc1O.[Br-] [Compound S10, (2-hydroxy-5-nitrophenyl)dimethylsulfonium bromide]
relative antagonist activity [1]: least

C[S+](C)C.[I-] [Compound S1, trimethylsulfonium iodide]
IMax (S1 Activation) (α4β2α5; [4]): 0.50 ± 0.03 | EC50 (α4β2α5; peak currents, unit inferred): 114 ± 25 µM | IMax (S1 Activation) (α3β4; [4]): 1.18 ± 0.01 | EC50 (α3β4; peak currents, unit inferred): 1420 ± 19.4 µM | activation of muscle-type receptors [2]: not an effective activator | activation of neuronal heteromeric receptors [3]: activates all the neuronal heteromeric receptors tested

C[S+](C)c1ccc(O)cc1 [Compound S9, (4-hydroxyphenyl)dimethylsulfonium methyl sulfate]
IC50 (α3β4 nAChR): 124 ± 22 µM
